Laboratory results published in patent publication US6063777A, “Iminochlorinaspartic acid derivatives” (Wyeth Lederle Japan, Ltd., priority 1996, dated 2000).
Values after ≈ are worked out from the molar mass of the structure shown.

Legend:
[1] = test system: choriocapillaris; experiment: Occlusion of choriocapillaris by PDT, histological findings 24 hours after laser irradiation; assay type: in vivo, rats (Long Evance Rats); settings: 16 mg/kg
Method: The following experiments were performed to investigate the optimal treatment parameters (timing of laser irradiation after dosing of the compound; laser irradiation dosage) for selective occlusion of choroidal neoplastic vessels by PDT using the compound of the present invention and a diode laser (produced by Hamamatsu Photonics; wavelength: 672 nm).
Photocoagulation was induced in rats (Long Evance Rats weighing 200-300 g) by Argon green laser irradiation (irradiation diameter: 100 μm, 140 mW, 0.1 sec) near the retinal papilla on funduc oculi. Ten days after photocoagulation, fundus photographs and fluorescein angiographs were taken and the animals showing development of choroidal neovascularization were used for experiments at the 11th day.
The compound of the present invention was administered via the tail vein at a dose of 16 mg/kg. After administration, time course distribution of the compound in the eyeball tissues was observed by fluorescence microscopy.
Laser irradiation was done by using the above-mentioned diode laser. The laser beam was confirmed to extend in the range of 500 μm in diameter on the retinal surface. Duration of irradiation was 4 minutes and the irradiation intensity varied at 30.6, 91.7, 152.9 and 244.9 mW/cm^2 on the retinal surface. These values correspond to 7.4, 22.0, 36.7 and 58.8 J/cm^2, respectively.
Assessment of the PDT using the compound of the present invention was made based on the fundus photographs taken with a fundus camera (produced by Jenesis Kowa) at 1 hour and 24 hours after laser irradiation. Occlusion of the neoplastic vessels and damage to the surrounding tissues were investigated by fluorescein antiography and histological examinations to assess the selectivity of the therapeutic effect.

[2] = Water solubility; assay type: physicochemical
[3] = Preliminary experiments: blood half-life after intravenous administration; assay type: in vivo; settings: rats and rabbits
[4] = Phosphorescence life time; assay type: physicochemical
[5] = test system: albumin; experiment: Albumin test (change in UV absorption spectrum in mixture with albumin); assay type: binding
Description: (§1) When compound (I) was examined by albumin test [that is, a convenient test method for evaluating the affinity to cancerous tissues, in which a chlorin derivative is examined on the change in ultraviolet (UV) absorption spectrum in a mixture form with albumin and in which one of the present inventors has found a certain rule] and dancyl methionine test [that is, a convenient test method for evaluating the strength of the photoreactivity by thin layer chromatography (TLC) or high performance liquid chromatography (HPLC)]

[6] = test system: HeLa cells; experiment: HeLa cell survival after diode laser (670 nm) irradiation, MTS-PMS reagent; assay type: cell-based
Method: HeLa cells were seeded in wells of a 96-well plate each containing 100 μl of a culture medium at 5×10^3 /well, and incubated at 37° C. overnight. In each well, the culture medium was removed, and 100 μl of a solution containing sodium salt of either of compound (I) or compound (II) in concentrations of 0, 6.25, 12.5, 25, 50 and 100 μM/ml was added (3 wells for each group of the concentrations) and incubated at 37° C. at for 6 hrs. Each well was washed with PBS(-) once, and then 100 μl of a fresh medium was added. The wells were irradiated using a diode laser (670 nm) under the conditions of 0.44W of laser intensity, 0.785 cm^2 of irradiation area (diameter: 1 cm) and 25 J/cm^2 of laser energy. After the irradiation, each well was incubated at 37° C. overnight and washed with PBS(-) once, then 100 μl of a fresh medium was added. To each well was added 20 μl of MTS-PMS reagent, and the well was further incubated at 37° C. for 2-4 hrs. The absorbance of each well at 492 nm was measured using a microplate reader. The cell survival rate at each of the above mentioned concentrations of the test compound was calculated considering the value for the well of 0 μM/ml of the test compound as 100%.

[7] = Stability in vivo and in vitro
[8] = Dancyl methionine test (photoreactivity by TLC or HPLC)
Description: as §1

- water solubility [2]: good water solubility
- solubility ([2]; water, aqueous solution, read-out: high concentration solution (water solubility)): 50 mg/mL (≈ 59.5 mM)
- compound in blood ([3]; after 24 hours, intravenous): undetectable in blood after 24 hours
- half-life ([3]; blood, intravenous administration): 30 min
- phosphorescence life time [4]: long phosphorescence life time
Compound: C=Cc1c(C)c2cc3nc(cc4[nH]c(cc5nc(cc1[nH]2)C(C)=C5CCC(=O)NC(CC(=O)O)C(=O)O)c(CCC(=O)NC(CC(=O)O)C(=O)O)c4C)C(C)(O)C3=CC=NO (stereo not drawn) [Compound (I)]
- Occlusion of choriocapillaris ([1]; 7.4 J/cm^2, irradiation 60 min after administration): Closed
- Occlusion of choriocapillaris ([1]; 7.4 J/cm^2, irradiation 120 min after administration): Open
- Occlusion of choriocapillaris ([1]; 7.4 J/cm^2, irradiation 240 min after administration): Open
- Occlusion of choriocapillaris ([1]; 7.4 J/cm^2, irradiation immediately after administration): Closed
- Occlusion of choriocapillaris ([1]; 22.0 J/cm^2, irradiation 60 min after administration): Closed
- Occlusion of choriocapillaris ([1]; 22.0 J/cm^2, irradiation 120 min after administration): Closed
- Occlusion of choriocapillaris ([1]; 22.0 J/cm^2, irradiation 240 min after administration): Closed
- Occlusion of choriocapillaris ([1]; 22.0 J/cm^2, irradiation immediately after administration): Closed
- Occlusion of choriocapillaris ([1]; 36.7 J/cm^2, irradiation 60 min after administration): Closed
- Occlusion of choriocapillaris ([1]; 36.7 J/cm^2, irradiation 120 min after administration): Closed
- Occlusion of choriocapillaris ([1]; 36.7 J/cm^2, irradiation 240 min after administration): Closed
- Occlusion of choriocapillaris ([1]; 36.7 J/cm^2, irradiation immediately after administration): Closed
- Occlusion of choriocapillaris ([1]; 58.8 J/cm^2, irradiation 60 min after administration): Closed
- Occlusion of choriocapillaris ([1]; 58.8 J/cm^2, irradiation 120 min after administration): Closed
- Occlusion of choriocapillaris ([1]; 58.8 J/cm^2, irradiation 240 min after administration): Closed
- Occlusion of choriocapillaris ([1]; 58.8 J/cm^2, irradiation immediately after administration): Closed
- affinity to albumin [5]: good affinity to albumin
- transferability to cancerous tissues (albumin test) [5]: excellent transferability to cancerous tissues
- cell destructing effect induced by a photosensitizing reaction [6]: strong cell destructing effect induced by a photosensitizing reaction
- viability at 6.25 µM ([6]; Homo sapiens, HeLa, light or radiation study, 6.25 μM, sodium salt, 6 hrs, 670 nm, 25 J/cm^2, read-out: Cell Survival Rate): 43%
- viability at 12.5 µM ([6]; Homo sapiens, HeLa, light or radiation study, 12.5 μM, sodium salt, 6 hrs, 670 nm, 25 J/cm^2, read-out: Cell Survival Rate): 19%
- viability at 25 µM ([6]; Homo sapiens, HeLa, light or radiation study, 25 μM, sodium salt, 6 hrs, 670 nm, 25 J/cm^2, read-out: Cell Survival Rate): 13%
- viability at 50 µM ([6]; Homo sapiens, HeLa, light or radiation study, 50 μM, sodium salt, 6 hrs, 670 nm, 25 J/cm^2, read-out: Cell Survival Rate): 10%
- viability at 100 µM ([6]; Homo sapiens, HeLa, light or radiation study, 100 μM, sodium salt, 6 hrs, 670 nm, 25 J/cm^2, read-out: Cell Survival Rate): 10%
- cell killing effect against tumor cells ([6]; compared with position isomer): remarkably higher cell killing effect against tumor cells compared with the position isomer
- stability in vivo and in vitro [7]: high stability in vivo, as well as in vitro
- photosensitivity (dancyl methionine test) [8]: strong photosensitivity
- cell killing effect when exposed to light ([8]; dancyl methionine test): good cell killing effect when exposed to light
